ChEMBL document CHEMBL4651402, “Screening of ~5500 FDA-approved drugs and clinical candidates for anti-SARS-CoV-2 activity” (2021)
“And” between values parts separate entries of the source, which are not always exact repeats. Identical values can stand only once.

Columns and labels:
SARS-CoV-2 [1] = assay: microbe, parasite or virus in culture; format: functional, organism-based, Chlorocebus sabaeus, Vero C1008
SARS-CoV-2 [2] = details: vero c1008
Vero C1008 = details: chlorocebus sabaeus, vero c1008, 48 h
in vitro = details: chlorocebus sabaeus, Vero E6 (Vero C1008) cells
SARS-CoV-2 [3] = assay: microbe, parasite or virus in culture; details: Severe acute respiratory syndrome coronavirus 2, Vero C1008, 48 h
[4] = Severe acute respiratory syndrome coronavirus 2, Vero C1008, 48 h, read-out: IC50
[5] = Severe acute respiratory syndrome coronavirus 2, Vero C1008, 48 h, read-out: pIC50 (converted)

## FLUPENTIXOL
SARS-CoV-2 [1]; vero c1008
  pIC50: < 4
SARS-CoV-2 [1]; vero c1008, read-out: IC50
  IC50: > 100 µM
SARS-CoV-2 [2]
  IC50: 8.71 µM and > 20 µM
  pIC50: 5.06 and < 4.7
Vero C1008
  CC50: 7.67 µM
  pCC50: 5.12

## CNC[C@H]1C[C@@H]2c3ccccc3Cc3ccc(F)cc3[C@H]2O1
SARS-CoV-2 [1]; [4]
  IC50: > 100 µM
SARS-CoV-2 [1]; [5]
  IC50: > 100 µM
SARS-CoV-2 [1]; vero c1008
  pIC50: < 4.3
SARS-CoV-2 [1]; vero c1008, read-out: IC50
  IC50: > 50.1 µM
Vero C1008; 48 h
  CC50: ~22.4 µM
  pCC50: ~ 4.65
In vitro; CC50
  CC50 at 48 h: 19.5 µM
In vitro; pCC50
  CC50 at 48 h: 19.5 µM
SARS-CoV-2 [3]
  IC50: > 100 µM
SARS-CoV-2 [3]; read-out: pIC50 (converted)
  IC50: > 100 µM

## OC(CNCC(O)C1CCc2cc(F)ccc2O1)C1CCc2cc(F)ccc2O1 (configuration not stated) [NEBIVOLOL]
SARS-CoV-2 [1]; [4]
  IC50: > 100 µM
SARS-CoV-2 [1]; [5]
  IC50: > 100 µM
SARS-CoV-2 [2]
  IC50: > 20 µM
  pIC50: < 4.7
In vitro; CC50
  CC50 at 48 h: 8.71 µM
In vitro; pCC50
  CC50 at 48 h: 8.71 µM
SARS-CoV-2 [3]
  IC50: > 10 µM
SARS-CoV-2 [3]; read-out: pIC50 (converted)
  IC50: > 10 µM

## COc1cccc([C@@H](C)NCCCc2ccccc2Cl)c1
SARS-CoV-2 [1]; [4]
  IC50: > 100 µM
SARS-CoV-2 [1]; [5]
  IC50: > 100 µM
SARS-CoV-2 [2]
  IC50: > 20 µM
  pIC50: < 4.7
In vitro; CC50
  CC50 at 48 h: 28.2 µM
In vitro; pCC50
  CC50 at 48 h: 28.2 µM
SARS-CoV-2 [3]
  IC50: 16.6 µM
SARS-CoV-2 [3]; read-out: pIC50 (converted)
  IC50: 16.6 µM
